In patent US4122078A, “Antigens and antibodies of catecholamines” (priority 1975, dated 1978):

Experiments:
[1] = tested on: epinephrine antibodies (γ-globulin fraction obtained in Example 2); experiment: Equilibrium dialysis method, specificity of the epinephrine antibodies; design: species or system rabbit; conditions: binding of 3H-DL-epinephrine (10μl of 3.4×10^-5 M) with 10μl of 3.4×10^-3 M compound; antibody 5.5 × 10^-6 M; 25° C; 100 = no compound
Description: The γ-globulin fraction obtained in Example 2 was dialyzed against the phosphate buffered saline and a solution of the final concentration of 0.94mg/ml was performed prepared. The γ-globulin solution was used as the antibody solution in this method. To the phosphate buffered saline used in this procedure, 0.01% of sodium metabisufite(Na2 S2 O5) and 0.015% ethylenediaminetetraacetic acid disodium salt were added.
An equilibrium dialysis apparatus of 2ml capacity was used and 500μl of the antibody solution was poured into one of a pair cell(cell A) and into another cell(cell B), 10μl of the phosphate buffered saline solution of DL-epinephrine labelled with tritium(^3 H) in a concentration of 3.4×10^-5 M and 490μl of phosphate buffered saline were introduced. They were shaked at 25° C to reach equilibrium and then radioactivity of each solution were counted. The difference of each counts was calculated and made as the standard.
Then, 500μl of γ-globulin solution was put in cell A, and in cell B were introduced 10μl of a solution of the concentration of 3.4×10^-3 M of epinephrine or one of other catecholamine or analogue compounds, 10μl of a phosphate buffered saline solution of ^3 H-epinephrine (3.4×10^-5 M) and 480μl of phosphate buffered saline. The solutions were shaked by the same manner as above and after equilibrium, the radioactivity of each solution were counted. The difference was calculated and the relative bindings were calculated from the standard.

[2] = tested on: antiserum to norepinephrine; experiment: Ouchterlony method, specificity of antiserum to norepinephrine; format: binding, rabbit; design: key: the degree of the precipitate formation were indicated by the signs of +++, ++,+-, and -, in turn; the degree of the precipitate formation were indicated by the signs of +++, ++,+-, and -, in turn; the degree of the precipitate formation were indicated by the signs of +++, ++,+-, and -, in turn; the degree of the precipitate formation were indicated by the signs of +++, ++,+-, and -, in turn; conditions: antigen 1mg/ml; antiserum after removal of antibodies to carrier material
Description: (§1) Agar was dissolved in phosphate buffered saline with warming to yield a final concentration of 1.2% and the solution was spread 2 mm in thickness on a glass plate. After cooling, 7 holes of 2mm diameter were made on the center and corners of a true hexagon with 5 mm side. In the center hole, the antiserum obtained above or diluted thereof to 1/2-1/3 with the phosphate buffered saline was filled. In the corner holes, the phosphate buffered saline solution of the conjugate (0.5-1.0mg/ml) and BSA were filled alternately. […] Therefore, an equal volume of BSA solution (1mg/ml) was added to the antiserum and the mixture was allowed to stand at 37° C for 1 hour, then at 4° C overnight. The resulted precipitates were removed by centrifuging. […] This antiserum was then dialyzed with 6M urea solution for 15 hours followed with phosphate buffer (0.007M NaH2 PO4,pH 6.3) for 2 days. The resulting solution was passed through a DEAE-cellulose column and the first fraction (gamma globulin fraction,γG-fraction) was collected with examining the absorbance at 280nm. […] The γG-fraction was dialyzed with water and lyophilized for the stock.
By the same manner as in Example 1, the antiserum of norepinephrine was produced and after removing the BSA-antibody, the γ-globuline fraction was obtained.
(§2) The specificity of antisera to the antigens was examined by the Ouchterlony method. […]

[3] = tested on: antiserum to dopamine-BSA; experiment: Ouchterlony method, specificity of antiserum to dopamine-BSA; format: binding, rabbit; design: key: the degree of the precipitate formation were indicated by the signs of +++, ++,+-, and -, in turn; the degree of the precipitate formation were indicated by the signs of +++, ++,+-, and -, in turn; the degree of the precipitate formation were indicated by the signs of +++, ++,+-, and -, in turn; the degree of the precipitate formation were indicated by the signs of +++, ++,+-, and -, in turn; conditions: antigen 1mg/ml; antiserum after removal of antibodies to carrier material
Description: as §1
According to the same manner as in Example 1, the dopamine specific antibody and γG-fraction thereof was obtained.
as §2

antiserum to L-dopa-BSA = experiment: Ouchterlony method, specificity of antiserum to L-dopa-BSA; format: binding, rabbit; design: key: the degree of the precipitate formation were indicated by the signs of +++, ++,+-, and -, in turn; the degree of the precipitate formation were indicated by the signs of +++, ++,+-, and -, in turn; the degree of the precipitate formation were indicated by the signs of +++, ++,+-, and -, in turn; the degree of the precipitate formation were indicated by the signs of +++, ++,+-, and -, in turn; conditions: antigen 1mg/ml; antiserum after removal of antibodies to carrier material
Description: The phosphate buffered saline solution of the conjugate was mixed with an equal volume of complete Freund's adjuvant to prepare a w/o type emulsion. The emulsion was intradermally injected to rabbit foot pads in the amount of 2-3mg of the antigen. After four weeks, phosphate buffered saline solution of the conjugate (1mg) was injected into the marginal vein of the rabbit ear. (This operation can be replaced by injecting subcutaneously the w/o emulsion of phosphate buffered saline solution of the conjugate (1mg) and incomplete Freund's adjuvant). One week after the booster injection, the rabbit were bled and the antisera were obtained.
Agar was dissolved in phosphate buffered saline with warming to yield a final concentration of 1.2% and the solution was spread 2 mm in thickness on a glass plate. After cooling, 7 holes of 2mm diameter were made on the center and corners of a true hexagon with 5 mm side. In the center hole, the antiserum obtained above or diluted thereof to 1/2-1/3 with the phosphate buffered saline was filled. […] Therefore, an equal volume of BSA solution (1mg/ml) was added to the antiserum and the mixture was allowed to stand at 37° C for 1 hour, then at 4° C overnight. […] The resulting solution was passed through a DEAE-cellulose column and the first fraction (gamma globulin fraction,γG-fraction) was collected with examining the absorbance at 280nm. […]

[4] = tested on: antiserum to epinephrine-BSA; experiment: Ouchterlony method, specificity of antiserum to epinephrine-BSA; format: binding, rabbit; design: key: the degree of the precipitate formation were indicated by the signs of +++, ++,+-, and -, in turn; the degree of the precipitate formation were indicated by the signs of +++, ++,+-, and -, in turn; the degree of the precipitate formation were indicated by the signs of +++, ++,+-, and -, in turn; the degree of the precipitate formation were indicated by the signs of +++, ++,+-, and -, in turn; conditions: antigen 1mg/ml; antiserum after removal of antibodies to carrier material
Description: as §1
Epinephrine specific antiserum was produced and γG-fraction was obtained by the same manner as in Example 1 using the phosphate buffered saline solution of the conjugate and complete Freund's adjuvant. […]

| Molecule | relative binding (%) [1] [%] | also measured |
| --- | --- | --- |
| CNCC(O)c1ccc(O)c(OC)c1 (racemic) [DL-methanephrine] | 81.7 |  |
| COc1cc(C(O)CN)ccc1O (racemic) [DL-normetanephrine] | 97.2 |  |
| O=C(O)Cc1ccc(O)c(O)c1 [3,4-dihydroxyphenylacetic acid] | 83.8 |  |
| COc1cc(CC(=O)O)ccc1O [4-hydroxy-3-methoxyphenylacetic acid] | 91.7 |  |
| N[C@@H](Cc1ccc(O)c(O)c1)C(=O)O [L-dopa] | 90.7 |  |
| CNC[C@H](O)c1ccc(O)c(O)c1 [L-epinephrine] | 0 |  |
| CC(C)NC[C@H](O)c1ccc(O)c(O)c1 [L-isoproterenol] | 72.9 |  |
| NC[C@H](O)c1ccc(O)c(O)c1 [L-norepinephrine] | 54.8 |  |
| NCCc1ccc(O)c(O)c1 [dopamine] | 88.0 |  |
| norepinephrine-BSA: 20-30 moles of norepinephrine conjugated to one mole of BSA |  | degree of the precipitate formation, antiserum to norepinephrine [2]: ++; degree of the precipitate formation, antiserum to dopamine-BSA [3]: +-; degree of the precipitate formation, antiserum to L-dopa-BSA (antiserum to L-dopa-BSA): +-; degree of the precipitate formation, antiserum to epinephrine-BSA [4]: +- |
